Experiment in all cases: KINOMEscan
Format in all cases: binding

The target in assay [1] is T1, AAK1 (Homo sapiens, UniProt Q2M2I8).
T1 construct: purchased Eurofins DiscoverX KINOMEscan
The conditions noted are these: read-out: % control activity remaining.

In assay [2] the target is T2, CSNK1G2 (Homo sapiens, UniProt P78368).
T2 construct: purchased Eurofins DiscoverX KINOMEscan
The conditions noted are these: read-out: % control activity remaining.

The target in assay [3] is T3, EGFR(L747-T751del,Sins) (Homo sapiens, UniProt P00533, DEL747-750/T751S).
T3 construct: purchased Eurofins DiscoverX KINOMEscan
The conditions noted are these: read-out: % control activity remaining.

Assay [4] deals with T4, EPHA8 (Homo sapiens, UniProt P29322).
T4 construct: purchased Eurofins DiscoverX KINOMEscan
T4 sequence (P29322 28-1005): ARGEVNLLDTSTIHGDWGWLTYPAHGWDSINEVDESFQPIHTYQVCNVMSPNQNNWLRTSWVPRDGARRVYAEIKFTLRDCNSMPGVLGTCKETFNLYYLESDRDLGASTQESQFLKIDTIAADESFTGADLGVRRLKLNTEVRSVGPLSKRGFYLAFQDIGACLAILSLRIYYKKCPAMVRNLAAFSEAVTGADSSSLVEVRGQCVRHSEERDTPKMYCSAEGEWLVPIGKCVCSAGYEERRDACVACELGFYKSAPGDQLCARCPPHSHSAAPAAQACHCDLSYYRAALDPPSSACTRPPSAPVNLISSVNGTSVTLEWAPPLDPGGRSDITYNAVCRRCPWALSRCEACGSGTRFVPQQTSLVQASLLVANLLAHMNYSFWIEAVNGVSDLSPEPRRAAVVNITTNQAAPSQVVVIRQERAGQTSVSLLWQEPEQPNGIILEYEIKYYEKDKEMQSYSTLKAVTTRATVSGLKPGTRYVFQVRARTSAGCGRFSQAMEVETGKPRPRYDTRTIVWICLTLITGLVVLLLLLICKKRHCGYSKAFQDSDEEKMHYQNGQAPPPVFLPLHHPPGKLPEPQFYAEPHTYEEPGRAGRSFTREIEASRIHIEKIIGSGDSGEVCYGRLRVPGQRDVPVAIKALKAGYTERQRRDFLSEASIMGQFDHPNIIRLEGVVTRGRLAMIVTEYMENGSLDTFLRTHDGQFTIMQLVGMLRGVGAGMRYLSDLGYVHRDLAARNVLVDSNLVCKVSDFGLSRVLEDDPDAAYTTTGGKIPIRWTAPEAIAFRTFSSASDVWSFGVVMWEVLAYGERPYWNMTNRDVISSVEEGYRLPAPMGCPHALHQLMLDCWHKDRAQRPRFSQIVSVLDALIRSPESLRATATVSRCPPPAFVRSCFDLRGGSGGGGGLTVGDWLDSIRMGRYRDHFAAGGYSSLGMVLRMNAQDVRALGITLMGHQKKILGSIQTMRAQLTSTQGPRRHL
The conditions noted are these: read-out: % control activity remaining.

The target in assay [5] is T5, MST3 (Homo sapiens, UniProt Q9Y6E0).
T5 construct: purchased Eurofins DiscoverX KINOMEscan
The following applies: read-out: % control activity remaining.

For assay [6], the target named is T6, MTOR (Homo sapiens, UniProt P42345).
T6 construct: purchased Eurofins DiscoverX KINOMEscan
The following applies: read-out: % control activity remaining.

In assay [7] the target is T7, NEK7 (Homo sapiens, UniProt Q8TDX7).
T7 construct: purchased Eurofins DiscoverX KINOMEscan
The conditions noted are these: read-out: % control activity remaining.

For assay [8], the target named is T8, PCTK2 (Homo sapiens, UniProt Q00537).
T8 construct: purchased Eurofins DiscoverX KINOMEscan
The following applies: for remaining binding at 1 µM: read-out: % control activity remaining.

The target of assay [9] is T9, PIK3CA(H1047L) (Homo sapiens, UniProt P42336, H1047L).
T9 construct: purchased Eurofins DiscoverX KINOMEscan
The conditions noted are these: read-out: % control activity remaining.

Assay [10] has as its target T10, TBK1 (Homo sapiens, UniProt Q9UHD2).
T10 construct: purchased Eurofins DiscoverX KINOMEscan
T10 sequence (Q9UHD2 1-729): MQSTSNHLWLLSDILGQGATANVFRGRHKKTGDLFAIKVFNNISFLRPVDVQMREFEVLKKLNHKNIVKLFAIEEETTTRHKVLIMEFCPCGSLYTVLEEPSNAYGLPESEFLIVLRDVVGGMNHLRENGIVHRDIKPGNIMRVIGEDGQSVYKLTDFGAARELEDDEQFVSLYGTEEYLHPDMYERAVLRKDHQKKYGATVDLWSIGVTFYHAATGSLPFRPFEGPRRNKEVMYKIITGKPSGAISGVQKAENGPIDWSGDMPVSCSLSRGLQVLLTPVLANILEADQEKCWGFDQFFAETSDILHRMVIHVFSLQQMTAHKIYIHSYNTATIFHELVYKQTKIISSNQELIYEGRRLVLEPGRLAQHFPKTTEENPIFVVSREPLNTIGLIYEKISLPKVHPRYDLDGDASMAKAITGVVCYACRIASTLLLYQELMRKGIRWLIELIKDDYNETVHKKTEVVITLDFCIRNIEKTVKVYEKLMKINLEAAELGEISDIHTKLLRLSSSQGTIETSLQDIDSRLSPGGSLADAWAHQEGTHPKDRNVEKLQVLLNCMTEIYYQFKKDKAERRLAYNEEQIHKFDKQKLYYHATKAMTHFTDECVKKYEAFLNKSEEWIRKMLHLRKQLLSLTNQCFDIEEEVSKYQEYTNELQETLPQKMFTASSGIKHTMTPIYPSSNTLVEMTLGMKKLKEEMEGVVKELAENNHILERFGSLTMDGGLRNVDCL
The following applies: read-out: % control activity remaining.

In assay [11] the target is T11, TXK (Homo sapiens, UniProt P42681).
T11 construct: purchased Eurofins DiscoverX KINOMEscan
T11 sequence (P42681 1-527): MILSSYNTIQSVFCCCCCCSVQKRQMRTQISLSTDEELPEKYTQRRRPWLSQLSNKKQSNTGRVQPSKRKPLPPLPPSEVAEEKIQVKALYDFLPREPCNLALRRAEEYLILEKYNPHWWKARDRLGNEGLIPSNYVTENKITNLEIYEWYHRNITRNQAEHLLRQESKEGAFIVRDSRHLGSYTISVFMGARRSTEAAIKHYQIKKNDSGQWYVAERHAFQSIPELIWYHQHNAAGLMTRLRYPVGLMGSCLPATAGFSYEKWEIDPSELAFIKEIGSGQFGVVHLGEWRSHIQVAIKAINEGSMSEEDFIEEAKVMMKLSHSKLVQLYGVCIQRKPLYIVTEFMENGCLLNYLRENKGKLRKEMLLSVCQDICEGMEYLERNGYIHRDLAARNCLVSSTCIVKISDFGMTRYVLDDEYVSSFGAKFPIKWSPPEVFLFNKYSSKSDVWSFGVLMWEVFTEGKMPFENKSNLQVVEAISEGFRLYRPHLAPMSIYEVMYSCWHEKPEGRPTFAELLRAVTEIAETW
The following applies: read-out: % control activity remaining.

The target in assay [12] is T12, VEGFR2 (Homo sapiens, UniProt P35968).
T12 construct: purchased Eurofins DiscoverX KINOMEscan
The conditions noted are these: read-out: % control activity remaining.

Consider three compounds from publication PMC6437697 (Journal of Medicinal Chemistry, 2019).

T7 sequence (Q8TDX7 whole entry): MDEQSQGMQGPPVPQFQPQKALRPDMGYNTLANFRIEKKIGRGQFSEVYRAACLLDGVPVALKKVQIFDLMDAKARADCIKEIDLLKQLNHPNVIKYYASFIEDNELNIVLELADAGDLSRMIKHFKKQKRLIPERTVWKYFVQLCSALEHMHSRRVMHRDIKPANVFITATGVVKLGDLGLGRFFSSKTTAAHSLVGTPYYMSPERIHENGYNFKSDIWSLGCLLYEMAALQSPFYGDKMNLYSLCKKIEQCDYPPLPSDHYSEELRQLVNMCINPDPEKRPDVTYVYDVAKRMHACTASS
T12 sequence (P35968 20-1356): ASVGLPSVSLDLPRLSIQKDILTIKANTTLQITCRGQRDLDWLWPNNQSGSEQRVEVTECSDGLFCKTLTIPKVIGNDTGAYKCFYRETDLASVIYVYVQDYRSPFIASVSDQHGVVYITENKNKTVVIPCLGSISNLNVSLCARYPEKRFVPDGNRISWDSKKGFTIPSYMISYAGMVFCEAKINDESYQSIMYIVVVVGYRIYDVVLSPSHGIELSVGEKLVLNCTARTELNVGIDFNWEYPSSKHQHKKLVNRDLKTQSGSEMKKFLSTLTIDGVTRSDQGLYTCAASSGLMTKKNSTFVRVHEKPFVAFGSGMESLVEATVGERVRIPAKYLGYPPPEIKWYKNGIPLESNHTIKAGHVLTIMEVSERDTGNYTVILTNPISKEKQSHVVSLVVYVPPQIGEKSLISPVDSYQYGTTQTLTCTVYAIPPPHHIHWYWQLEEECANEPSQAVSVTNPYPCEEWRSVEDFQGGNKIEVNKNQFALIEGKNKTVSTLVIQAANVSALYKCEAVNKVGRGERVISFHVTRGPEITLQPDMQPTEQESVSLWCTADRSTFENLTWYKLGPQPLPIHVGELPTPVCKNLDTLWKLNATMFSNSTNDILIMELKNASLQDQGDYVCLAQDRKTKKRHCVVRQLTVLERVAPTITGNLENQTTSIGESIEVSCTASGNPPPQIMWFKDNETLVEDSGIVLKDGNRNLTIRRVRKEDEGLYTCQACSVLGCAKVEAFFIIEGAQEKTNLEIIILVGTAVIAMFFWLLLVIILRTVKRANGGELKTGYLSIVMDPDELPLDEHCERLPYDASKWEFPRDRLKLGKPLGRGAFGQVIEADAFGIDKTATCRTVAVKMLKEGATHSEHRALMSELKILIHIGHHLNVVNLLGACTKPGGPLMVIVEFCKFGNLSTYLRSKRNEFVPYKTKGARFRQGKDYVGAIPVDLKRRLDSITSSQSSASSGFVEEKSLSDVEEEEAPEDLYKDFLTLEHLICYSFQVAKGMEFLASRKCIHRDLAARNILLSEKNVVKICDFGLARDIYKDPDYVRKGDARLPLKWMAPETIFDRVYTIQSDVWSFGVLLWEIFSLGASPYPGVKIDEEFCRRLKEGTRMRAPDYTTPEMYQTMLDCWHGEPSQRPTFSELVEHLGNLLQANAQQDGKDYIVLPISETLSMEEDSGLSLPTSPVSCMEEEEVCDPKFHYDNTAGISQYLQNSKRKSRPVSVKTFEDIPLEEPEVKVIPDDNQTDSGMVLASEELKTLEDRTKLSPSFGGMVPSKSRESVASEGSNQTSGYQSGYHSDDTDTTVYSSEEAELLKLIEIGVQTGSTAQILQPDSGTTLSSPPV
T2 sequence (P78368 whole entry): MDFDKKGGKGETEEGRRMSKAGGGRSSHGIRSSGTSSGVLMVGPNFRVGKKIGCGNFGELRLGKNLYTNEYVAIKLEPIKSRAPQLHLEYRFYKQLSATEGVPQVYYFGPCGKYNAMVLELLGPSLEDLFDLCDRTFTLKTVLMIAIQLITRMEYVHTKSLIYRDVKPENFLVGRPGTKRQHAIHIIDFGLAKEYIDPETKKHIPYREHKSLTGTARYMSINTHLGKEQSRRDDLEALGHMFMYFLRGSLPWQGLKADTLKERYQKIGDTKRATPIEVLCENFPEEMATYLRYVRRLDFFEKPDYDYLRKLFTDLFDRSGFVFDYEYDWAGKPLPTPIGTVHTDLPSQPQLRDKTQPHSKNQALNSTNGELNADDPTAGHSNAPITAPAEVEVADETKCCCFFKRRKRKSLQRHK
T9 sequence (P42336 whole entry H1047L): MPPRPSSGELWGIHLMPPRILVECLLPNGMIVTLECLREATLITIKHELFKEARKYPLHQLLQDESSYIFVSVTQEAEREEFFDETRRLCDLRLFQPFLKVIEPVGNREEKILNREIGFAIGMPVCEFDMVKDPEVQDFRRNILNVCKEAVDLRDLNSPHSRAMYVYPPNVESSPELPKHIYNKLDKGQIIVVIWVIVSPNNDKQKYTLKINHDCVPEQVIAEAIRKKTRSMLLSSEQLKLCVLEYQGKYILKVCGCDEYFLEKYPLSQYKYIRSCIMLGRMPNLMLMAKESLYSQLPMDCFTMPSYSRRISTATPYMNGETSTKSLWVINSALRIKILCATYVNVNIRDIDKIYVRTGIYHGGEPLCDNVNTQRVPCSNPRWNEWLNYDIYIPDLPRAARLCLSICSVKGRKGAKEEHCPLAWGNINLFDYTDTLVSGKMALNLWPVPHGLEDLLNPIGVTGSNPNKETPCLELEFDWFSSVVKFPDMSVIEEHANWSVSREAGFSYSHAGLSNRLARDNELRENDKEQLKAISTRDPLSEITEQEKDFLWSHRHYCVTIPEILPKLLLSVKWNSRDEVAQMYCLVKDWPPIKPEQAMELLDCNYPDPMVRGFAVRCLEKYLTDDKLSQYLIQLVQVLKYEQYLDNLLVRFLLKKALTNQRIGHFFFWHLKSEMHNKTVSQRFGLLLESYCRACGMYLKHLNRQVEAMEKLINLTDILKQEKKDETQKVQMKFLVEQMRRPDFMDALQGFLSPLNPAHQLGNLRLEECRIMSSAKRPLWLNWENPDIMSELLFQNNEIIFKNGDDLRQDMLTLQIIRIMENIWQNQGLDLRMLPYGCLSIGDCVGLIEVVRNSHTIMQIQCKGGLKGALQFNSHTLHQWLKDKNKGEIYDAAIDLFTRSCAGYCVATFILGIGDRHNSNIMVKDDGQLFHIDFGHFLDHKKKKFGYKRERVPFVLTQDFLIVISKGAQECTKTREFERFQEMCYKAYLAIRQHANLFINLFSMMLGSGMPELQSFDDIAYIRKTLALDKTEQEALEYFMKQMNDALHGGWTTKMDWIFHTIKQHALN
T3 sequence (P00533 with tags, fused parts or gaps DEL747-750/T751S limits assumed): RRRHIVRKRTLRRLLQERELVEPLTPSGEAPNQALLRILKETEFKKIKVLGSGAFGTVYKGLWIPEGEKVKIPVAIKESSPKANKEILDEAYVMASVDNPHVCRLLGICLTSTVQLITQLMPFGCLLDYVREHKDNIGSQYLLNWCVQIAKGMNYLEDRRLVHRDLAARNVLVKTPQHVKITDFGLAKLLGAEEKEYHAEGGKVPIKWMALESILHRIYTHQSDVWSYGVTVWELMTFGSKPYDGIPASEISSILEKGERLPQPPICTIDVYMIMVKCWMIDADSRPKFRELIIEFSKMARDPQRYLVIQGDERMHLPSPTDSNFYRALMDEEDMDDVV
T1 sequence (Q2M2I8 whole entry): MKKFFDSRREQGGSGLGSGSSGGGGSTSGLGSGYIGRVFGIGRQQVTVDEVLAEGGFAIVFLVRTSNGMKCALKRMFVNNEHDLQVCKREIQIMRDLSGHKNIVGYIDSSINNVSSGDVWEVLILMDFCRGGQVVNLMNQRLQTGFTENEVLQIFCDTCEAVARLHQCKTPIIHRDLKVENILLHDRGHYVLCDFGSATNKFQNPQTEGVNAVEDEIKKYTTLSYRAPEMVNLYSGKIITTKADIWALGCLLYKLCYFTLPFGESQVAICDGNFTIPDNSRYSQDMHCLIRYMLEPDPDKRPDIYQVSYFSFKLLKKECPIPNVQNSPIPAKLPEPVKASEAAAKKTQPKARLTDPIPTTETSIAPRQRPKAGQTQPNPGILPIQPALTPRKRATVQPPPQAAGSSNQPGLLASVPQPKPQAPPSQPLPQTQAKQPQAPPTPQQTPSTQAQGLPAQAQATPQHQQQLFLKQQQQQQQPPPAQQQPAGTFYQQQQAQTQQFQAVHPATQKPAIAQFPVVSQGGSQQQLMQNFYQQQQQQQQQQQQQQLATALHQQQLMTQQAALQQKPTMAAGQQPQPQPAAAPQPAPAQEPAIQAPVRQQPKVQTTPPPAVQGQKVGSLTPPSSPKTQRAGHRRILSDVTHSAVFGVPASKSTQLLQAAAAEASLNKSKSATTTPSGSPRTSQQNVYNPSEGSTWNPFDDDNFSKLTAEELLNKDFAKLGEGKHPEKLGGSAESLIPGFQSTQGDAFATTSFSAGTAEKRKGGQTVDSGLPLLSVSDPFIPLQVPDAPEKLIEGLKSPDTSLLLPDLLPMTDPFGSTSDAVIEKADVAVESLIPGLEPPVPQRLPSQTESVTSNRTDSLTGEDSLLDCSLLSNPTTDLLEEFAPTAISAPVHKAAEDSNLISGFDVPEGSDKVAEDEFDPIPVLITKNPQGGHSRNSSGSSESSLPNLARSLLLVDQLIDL
T8 sequence (Q00537 whole entry): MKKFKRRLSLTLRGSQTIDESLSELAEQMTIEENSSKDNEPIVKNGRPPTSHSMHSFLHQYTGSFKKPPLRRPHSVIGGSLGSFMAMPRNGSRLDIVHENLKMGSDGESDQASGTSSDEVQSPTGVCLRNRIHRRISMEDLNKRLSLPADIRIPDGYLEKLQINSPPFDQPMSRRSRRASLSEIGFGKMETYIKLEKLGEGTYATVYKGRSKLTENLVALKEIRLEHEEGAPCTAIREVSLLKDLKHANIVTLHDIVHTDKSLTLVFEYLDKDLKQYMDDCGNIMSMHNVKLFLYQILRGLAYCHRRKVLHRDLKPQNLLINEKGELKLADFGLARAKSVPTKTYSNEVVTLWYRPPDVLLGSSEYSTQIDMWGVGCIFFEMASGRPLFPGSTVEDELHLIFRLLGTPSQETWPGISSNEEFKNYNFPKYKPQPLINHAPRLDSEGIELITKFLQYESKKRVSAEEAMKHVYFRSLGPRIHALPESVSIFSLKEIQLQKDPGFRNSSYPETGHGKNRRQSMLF

On to `Clc1cc(NCC2CC2)c2ncc(-c3ccc4[nH]ncc4c3)n2n1` [compound 2, 6-Chloro-N-(cyclopropylmethyl)-3-(1H-indazol-5-yl)imidazo[1,2-b]pyridazin-8-amine], for which the remaining binding at 1 µM is 39% in assay [1]; 100% in [2]; 88% in assay [3]; 90% in assay [4]; 100% in assay [5]; 98% in [6]. Moreover, the remaining binding at 1 µM amounted to 97% in assay [7]; 98% in [8]; 95% in assay [9]; 71% in assay [10]; 85% in assay [11]; 79% in [12].
With `O=C(CN1CCOCC1)N[C@H]1CC[C@H](Nc2cc(Cl)nn3c(-c4ccc5[nH]ncc5c4)cnc23)CC1` [compound 26], the remaining binding at 1 µM in [1] came to 28%; in [2], 95%; in assay [3], 96%; in assay [4], 90%; in assay [5] it was 91%; in [6] it was 100%. Moreover, the remaining binding at 1 µM in [7] was 99%; in [8], 66%; in assay [9], 98%; in [10], 90%; in [11], 88%; in assay [12], 35%.
On to `CN1CCC(CNc2cc(Cl)nn3c(-c4cc5nc(Nc6ccccc6)[nH]c5cc4F)cnc23)CC1` [compound 31, 6-Chloro-3-(6-fluoro-2-(phenylamino)-1H-benzo[d]imidazol-5-yl)-N-((1-methylpiperidin-4-yl)methyl)imidazo[1,2-b]pyridazin-8-amine], for which the remaining binding at 1 µM stood at 100% in assay [1]; 96% in assay [2]; 92% in assay [3]; 92% in assay [4]; 92% in assay [5]; 89% in [6]. The remaining binding at 1 µM in assay [7] was found to be 94%; in assay [8], 2.7%; in assay [9] it was 70%; in assay [10], 76%; in assay [11] it was 93%; in assay [12], 71%. Further, the inhibition at 1 µM in [8] (read-out: Probe binding inhibited, 1 μM) came out at 97%.
